Measured values published in the supplement of paper PMC10307832.

Legend:
Experiment in all cases: relative viability (nuclei count vs DMSO), 5 days (fraction); higher = more cells survive
[1] = compound: CC1CC(=O)N(C2=CN=C(N=C2N1C3CCCC3)NC4=C(C=C(C=C4)C(=O)NC5CCN(CC5)C)OC)C [NPK76-II-72-1] + C[C@@H](Oc1cc(-c2cnn(C3CCNCC3)c2)cnc1N)c1c(Cl)ccc(F)c1Cl [Crizotinib] (partner 1 µM)
Outline: (§1)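 Medians of duplicate plates are given as relative viability. That measure is the nuclei count in treated wells divided by the count in vehicle wells. Counts were taken on 4× images of lung cancer cell lines in 1536-well plates, 5 days after pin-tool dosing the day after seeding with one drug alone or a fixed anchor-drug dose plus five library-drug doses (not always all listed) in √10 steps.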

BI-2536 + Pictilisib = compound: CC[C@@H]1C(=O)N(C)c2cnc(Nc3ccc(C(=O)NC4CCN(C)CC4)cc3OC)nc2N1C1CCCC1 [BI-2536] + CS(=O)(=O)N1CCN(Cc2cc3nc(-c4cccc5[nH]ncc45)nc(N4CCOCC4)c3s2)CC1 [Pictilisib] (partner 1 µM)
Outline: as §1

[2] = compound: CC1CC(=O)N(C2=CN=C(N=C2N1C3CCCC3)NC4=C(C=C(C=C4)C(=O)NC5CCN(CC5)C)OC)C [NPK76-II-72-1] + C[C@]1(O)C[C@@H](c2nc(-c3ccc4ccc(-c5ccccc5)nc4c3)c3c(N)nccn32)C1 [Linsitinib] (partner 1 µM)
Outline: as §1

[3] = compound: CC1CC(=O)N(C2=CN=C(N=C2N1C3CCCC3)NC4=C(C=C(C=C4)C(=O)NC5CCN(CC5)C)OC)C [NPK76-II-72-1] + COc1cc2c(Oc3ccc(NC(=O)C4(C(=O)Nc5ccc(F)cc5)CC4)cc3F)ccnc2cc1OCCCN1CCOCC1 [Foretinib] (partner 0.25 µM)
Outline: as §1

| Cell Line | relative viability ([1]; first compound 0.01 µM) | relative viability ([1]; first compound 0.03162 µM) | relative viability ([1]; first compound 0.1 µM) | relative viability ([1]; first compound 0.3162 µM) | relative viability ([1]; first compound 1 µM) | relative viability (BI-2536 + Pictilisib; first compound 0.01 µM) | relative viability (BI-2536 + Pictilisib; first compound 0.03162 µM) | relative viability (BI-2536 + Pictilisib; first compound 0.1 µM) | relative viability (BI-2536 + Pictilisib; first compound 0.3162 µM) | relative viability (BI-2536 + Pictilisib; first compound 1 µM) | relative viability ([2]; first compound 0.01 µM) | relative viability ([2]; first compound 0.03162 µM) | relative viability ([2]; first compound 0.1 µM) | relative viability ([2]; first compound 0.3162 µM) | relative viability ([2]; first compound 1 µM) | relative viability ([3]; first compound 0.01 µM) | relative viability ([3]; first compound 0.03162 µM) | relative viability ([3]; first compound 0.1 µM) | relative viability ([3]; first compound 0.3162 µM) | relative viability ([3]; first compound 1 µM) |
| --- | --- | --- | --- | --- | --- | --- | --- | --- | --- | --- | --- | --- | --- | --- | --- | --- | --- | --- | --- | --- |
| NCI-H1299 | 0.921 | 0.911 | 0.984 | 0.932 | 0.919 | 0.708 | 0.351 | 0.154 | 0.0991 | 0.0448 | 0.999 | 0.96 | 1.01 | 0.98 | 1.03 | 1.11 | 1.12 | 1.2 | 1.07 | 1.03 |
| EBC-1 | 0.178 | 0.21 | 0.19 | 0.214 | 0.184 | 0.35 | 0.232 | 0.147 | 0.158 | 0.119 | 0.853 | 0.858 | 0.886 | 0.922 | 1.13 | 0.103 | 0.121 | 0.0919 | 0.114 | 0.108 |
| NCI-H2347 | 0.742 | 0.698 | 0.715 | 0.718 | 0.944 | 0.471 | 0.523 | 0.596 | 0.463 | 0.32 | 0.925 | 1.03 | 1 | 0.896 | 0.983 | 0.844 | 1.1 | 0.935 | 0.424 | 0.917 |
| NCI-H1993 | 0.912 | 0.839 | 0.791 | 0.722 | 0.977 | 0.981 | 0.681 | 0.638 | 0.664 | 0.631 | 0.728 | 0.768 | 0.576 | 0.657 | 0.778 | 0.801 | 0.791 | 0.868 | 0.604 | 0.808 |
| NCI-H322M | 0.968 | 0.944 | 0.868 | 0.873 | 0.983 | 0.303 | 0.478 | 0.559 | 0.519 | 0.271 | 0.853 | 1.1 | 0.805 | 0.961 | 0.976 | 1.06 | 1.09 | 0.976 | 0.923 | 0.978 |
| NCI-H838 | 0.865 | 0.952 | 0.823 | 0.734 | 0.848 | 0.44 | 0.393 | 0.203 | 0.118 | 0.122 | 0.935 | 1.05 | 1.11 | 1.01 | 1.03 | 0.956 | 0.99 | 1.1 | 0.949 | 1.09 |
| HARA | 0.993 | 1.2 | 1.03 | 1.01 | 1.24 | 0.372 | 0.535 | 0.147 | 0.072 | 0.0745 | 1.03 | 0.921 | 0.929 | 0.77 | 1.03 | 0.913 | 1.06 | 0.797 | 0.819 | 1.1 |
